According to patent US20190159451A1, “ACTIVE COMPOUND COMBINATIONS AND METHODS TO PROTECT THE PROPAGATION MATERIAL OF PLANTS” (Bayer CropScience Aktiengesellschaft, priority 2016, published 2019):

Key:
Ctenocephalides felis = Ctenocephalides felis in-vitro contact test, adult cat flea; format: in vivo; details: 5 μg/cm^2 (=500 g/ha), after 48 hours
Procedure: Ctenocephalides felis—In-Vitro Contact Tests Adult Cat Flea
9 mg compound is solved in 1 ml acetone and diluted with acetone to the desired concentration. 250 μl of the test solution is filled in 25 ml glass test tubes and homogeneously distributed on the inner walls by rotation and tilting on a shaking device (2 h at 30 rpm). With a compound concentration of 900 ppm, an inner surface of 44.7 cm^2 and a homogeneous distribution, a dose of […] is achieved.
After the solvent has evaporated, each test tube is filled with 5-10 adult cat fleas (Ctenocephalides felis), closed with a perforated lid and incubated in a lying position at room temperature and relative humidity. After 48 hours efficacy is determined. The fleas are patted on the ground of the tubes and are incubated on a heating plate at 45-50° C. for at most 5 minutes. Immotile or uncoordinated moving fleas, which are not able to escape the heat by climbing upwards, are marked as dead or moribund.
An efficacy of 100% means all fleas are dead or moribund; 0% means no fleas are dead or moribund.

Lucilia cuprina = Lucilia cuprina test (LUCICU); format: in vivo; details: 48 h
Procedure: Lucilia cuprina—Test (LUCICU)
(§1) Solvent: dimethyl sulfoxide
10 mg active compound are dissolved in 0.5 ml Dimethylsulfoxid. Serial dilutions are made to obtain the desired rates.
Approximately 20 1st instar larvae of the Australian sheep blowfly (Lucilia cuprina) are transferred into a test tube containing minced horse meat and compound solution of the desired concentration.
After 2 days mortality in % is determined. 100% means all the larvae have been killed; 0% means none of the larvae have been killed.

Musca domestica = Musca domestica test (MUSCDO); format: in vivo; details: for mortality: after 2 days, adult house flies
Procedure: Musca domestica—Test (MUSCDO)
as §1
To produce a suitable preparation of active compound, 10 mg of active compound are dissolved in 0.5 ml solvent, and the concentrate is diluted with water to the desired concentration.
10 adult house flies (Musca domestica) are transferred into a container, containing a sponge soaked with a mixture of sugar solution and compound solution of the desired concentration.
After 2 days mortality in % is determined. 100% means all the flies have been killed; 0% means none of the flies have been killed.

Diabrotica balteata = Diabrotica balteata spray test; format: in vivo; details: 160 μg/well, after 7 days, larvae on germinated wheat seeds
Procedure: Diabrotica balteata—Spray Test
(§2) Solvent: 78.0 parts by weight of acetone • • 1.5 parts by weight of dimethylformamide
(§3) Emulsifier: alkylarylpolyglycol ether
(§4) To produce a suitable preparation of active compound, 1 part by weight of active compound is mixed with the stated amount of solvent, and the concentrate is diluted with water, containing an emulsifier concentration of 1000 ppm, to the desired concentration. Further test concentrations are prepared by dilution with emulsifier containing water.
Soaked wheat seeds (Triticum aestivum) are placed in a multiple well plate filled with agar and some water and are incubated for 1 day to germinate (5 seeds per well). The germinated wheat seeds are sprayed with a test solution containing the desired concentration of the active ingredient. Afterwards each unit is infected with 10-20 larvae of the banded cucumber beetle (Diabrotica balteata).
After 7 days efficacy in % is determined. 100% means all the seedlings have grown up like in the untreated, uninfected control; 0% means none of the seedlings have grown.

Myzus persicae [1] = test: Myzus persicae spray test; format: in vivo; details: for mortality: 100 g/ha, after 6 days, Chinese cabbage leaf disks
Procedure: Myzus persicae—Spray Test
(§5) Solvent: 78.0 parts by weight acetone • 1.5 parts by weight dimethylformamide
as §3
as §4, with “solvents” for “solvent,”, “and” for “and the concentrate”
Chinese cabbage (Brassica pekinensis) leaf disks infected with all instars of the green peach aphid (Myzus persicae), are sprayed with a preparation of the active ingredient of the desired concentration.
After 6 days mortality in % is determined. 100% means all aphids have been killed and 0% means none of the aphids have been killed.

Log P (HCOOH) = format: physicochemical; details: HCOOH (formic acid); read-out: Log P-Wert (HCOOH)
Myzus persicae [2] = test: Myzus persicae oral test; format: in vivo
Procedure: Solvent: 100 parts by weight acetone
To produce a suitable preparation of active compound, 1 part by weight of active compound is mixed with the stated amount of solvent, and the concentrate is diluted with water to the desired concentration. 50 μl compound solution is filled in microtiter plates and 150 μl IPL41 insect medium (33%+15% sugar) is added to obtain a total volume of […] per well. Afterwards the plates are sealed with parafilm through which a mixed population of the green peach aphid (Myzus persicae) can suck on the compound preparation.
After 5 days mortality in % is determined. 100% means all aphids have been killed and 0% means none of the aphids have been killed.

Nezara viridula = Nezara viridula spray test; format: in vivo
Procedure: Nezara viridula—Spray Test
as §2, §3, §4
Barley plants (Hordeum vulgare) infested with larvae of the southern green stink bug (Nezara viridula) are sprayed with a test solution containing the desired concentration of the active ingredient.
After 4 days mortality in % is determined. 100% means all the stink bugs have been killed; 0% means none of the stink bugs have been killed.

Nilaparvata lugens = Nilaparvata lugens spray test; format: in vivo
Procedure: Nilaparvata lugens—Spray Test
as §2, §3
as §4, with “solvents” for “solvent,”, “and” for “and the concentrate”
Rice plants (Oryza sativa) are sprayed with a preparation of the active ingredient of the desired concentration and the plants are infested with the brown planthopper (Nilaparvata lugens).
After 4 days mortality in % is determined. 100% means all planthoppers have been killed and 0% means none of the planthoppers have been killed.

Tetranychus urticae = test: whole plant or invertebrate; format: in vivo; details: in Phaseolus vulgaris, foliar, 144 h
Procedure: Tetranychus urticae—Spray Test OP-Resistant
as §5, §3
as §4, with “solvents” for “solvent,”, “and” for “and the concentrate”
French bean (Phaseolus vulgaris) leaf disks infected with all instars of the two spotted spidermite (Tetranychus urticae), are sprayed with a preparation of the active ingredient of the desired concentration.
After 6 days mortality in % is determined. 100% means all spider mites have been killed and 0% means none of the spider mites have been killed.

Phaedon cochleariae = Phaedon cochleariae spray test; format: in vivo; details: 20 g/ha, after 7 days, larvae on Chinese cabbage leaf disks
Procedure: Phaedon cochleariae—Spray Test
as §2, §3
as §4, with “solvents” for “solvent,”, “and” for “and the concentrate”
Chinese cabbage (Brassica pekinensis) leaf disks are sprayed with a preparation of the active ingredient of the desired concentration. Once dry, the leaf disks are infested with mustard beetle larvae (Phaedon cochleariae).
After 7 days mortality in % is determined. 100% means all beetle larvae have been killed and 0% means none of the beetle larvae have been killed.

[3] = Myzus persicae, in Brassica rapa, foliar, 144 h

SMILES: O=C(/C=C1\SCCN1Cc1ccc(Cl)nc1)C(F)(F)F [Example I-1, 3-[3-[(6-Chloro-3-pyridinyl)methyl]-2-thiazolidinylidene]-1,1,1-trifluoro-2-propanone]
- efficacy (fleas dead or moribund) (Ctenocephalides felis): 100%
- mortality at 100 ppm (Lucilia cuprina): 100%
- mortality at 4 ppm (Musca domestica; Musca domestica, 48 h): 90%
- efficacy (seedlings grown) (Diabrotica balteata): 100%
- mortality at 100 g/ha (Myzus persicae [1]; [3]): 90%
- chromatographic logP (Log P (HCOOH)): 2.21

SMILES: O=C(/C=C1\SCCN1Cc1ccc(F)nc1)C(F)(F)F [Example I-2, 3-[3-[(6-Fluoro-3-pyridinyl)methyl]-2-thiazolidinylidene]-1,1,1-trifluoro-2-propanone]
- efficacy (fleas dead or moribund) (Ctenocephalides felis): 100%
- mortality at 100 ppm (Lucilia cuprina): 100%
- mortality at 4 ppm (Musca domestica; Musca domestica, 48 h): 80%
- mortality at 20 ppm (Musca domestica; Musca domestica, 48 h): 95%
- efficacy (seedlings grown) (Diabrotica balteata): 100%
- mortality at 20 ppm (Myzus persicae [2]; Myzus persicae, po, 120 h): 100%
- mortality at 500 g/ha (Myzus persicae [1]; [3]): 100%
- mortality at 500 g/ha (Nezara viridula; Nezara viridula, in Hordeum vulgare, 96 h): 90%
- mortality at 500 g/ha (Nilaparvata lugens; Nilaparvata lugens, in Oryza sativa, 96 h): 100%
- mortality at 500 g/ha (Tetranychus urticae): 80%
- chromatographic logP (Log P (HCOOH)): 2.25

SMILES: O=C(/C=C1\NCCN1Cc1ccc(Br)nc1)C(F)(F)F [Example I-3, 3-[1-[(6-Bromo-3-pyridinyl)methyl]-2-imidazolidinylidene]-1,1,1-trifluoro-2-propanone]
- efficacy (fleas dead or moribund) (Ctenocephalides felis): 100%
- mortality at 100 ppm (Lucilia cuprina): 100%
- mortality at 4 ppm (Musca domestica; Musca domestica, 48 h): 80%
- efficacy (seedlings grown) (Diabrotica balteata): 100%
- mortality at 100 g/ha (Myzus persicae [1]; [3]): 90%

SMILES: O=C(C=C1SCCN1Cc1ccc(Br)nc1)C(F)(F)F [Example I-4]
- efficacy (fleas dead or moribund) (Ctenocephalides felis): 100%
- mortality (Musca domestica; 4 ppm): 100%
- efficacy (seedlings grown) (Diabrotica balteata): 100%

SMILES: O=C(C=C1NCCN1Cc1ccc(Cl)nc1)C(F)(F)F [Example I-5]
- efficacy (fleas dead or moribund) (Ctenocephalides felis): 100%
- mortality (Musca domestica; 4 ppm): 100%

SMILES: O=C(C=C1NCCCN1Cc1ccc(F)nc1)C(F)(F)F [Example I-6]
- efficacy (fleas dead or moribund) (Ctenocephalides felis): 100%
- mortality (Musca domestica; 20 ppm): 100%
- efficacy (seedlings grown) (Diabrotica balteata): 100%

SMILES: O=C(C=C1NCCCN1Cc1ccc(Cl)nc1)C(F)(F)F [Example I-7]
- efficacy (fleas dead or moribund) (Ctenocephalides felis): 100%
- mortality (Myzus persicae [1]): 90%
- mortality (Phaedon cochleariae): 100%

SMILES: O=C(C=C1NCCCN1Cc1ccc(Br)nc1)C(F)(F)F [Example I-8]
- efficacy (fleas dead or moribund) (Ctenocephalides felis): 100%
- mortality (Musca domestica; 20 ppm): 100%
- efficacy (seedlings grown) (Diabrotica balteata): 100%
- mortality (Myzus persicae [2]; 20 ppm, after 5 days, oral): 100%
- mortality (Myzus persicae [1]): 90%
- mortality (Nezara viridula; 500 g/ha, after 4 days, larvae on barley plants): 90%
- mortality (Nilaparvata lugens; 500 g/ha, after 4 days, rice plants): 100%
- mortality (Phaedon cochleariae): 100%
